Where two headings read alike, the source gives them in different places. One block for each compound: values may come before it.
Columns and labels:
[1] = cited from earlier work
in vivo = details: male, Locusta migratoria (grasshopper/locust)
[2] = Hemolymph concentration after injection into grasshoppers, measured by LCMS; details: male, Locusta migratoria (grasshopper/locust), in vivo

endogenous level in the brain (concentration in brain supernatant) (no injection, washed in saline, 3 brains in one tube): 20 ng/mL
concentration at 5 min (in vivo; 12.6 µg per insect, average concentration in brain supernatant, 20 μl of 630 μg/ml injected, 5 minutes, washed in saline, neural lamella included, 3 brains per tube): 86.5 ng/mL
Structure (SMILES): NCCc1c[nH]c2ccc(O)cc12 [serotonin]
penetration of the grasshopper blood brain barrier (BBB), conclusion in words (Locusta migratoria, injection): only penetrates the grasshopper BBB to a very low extend, if any at all
BBB penetration in vertebrates, in words [1]: very low BBB penetration
concentration at 5 min ([2]; 12.6 µg per insect): 4700 ng/mL

Structure (SMILES): O=C1CC2(CCCC2)CC(=O)N1CCCCN1CCN(c2ncccn2)CC1 [buspirone]
concentration at 5 min (in vivo; 168 µg per insect): < 20 ng/mL
concentration at 5 min ([2]; 168 µg per insect): 4500 ng/mL

factor by which measured brain concentration is increased when the neural lamella is included (male, Locusta migratoria (grasshopper/locust), in vivo, 5 min): 3
Structure (SMILES): CN1CCN2c3ccccc3Cc3ccccc3C2C1 (stereo not drawn) [mianserin]
penetration of the grasshopper blood brain barrier (BBB), conclusion in words (in vivo): penetrates the blood brain barrier (BBB) in grasshoppers

Source: US9194864B2, “Screening methods employing insects with blood brain barrier” (Entomopharm ApS, priority 2008, dated 2015)
